# Laboratory results from patent US20080287469A1, “Phosphoinositide 3-Kinase Inhibitors for Inhibiting Leukocyte Accumulation” (priority 2005, published 2008).
# What was measured:
# [1] = biological target: Lck (Homo sapiens, UniProt P06239); experiment: Protein kinase/phosphatase panel: Lck; assay type: biochemical; conditions: inhibitor 10 μM; 100 μM ATP
# [2] = biological target: CDK2/cyclinA (Homo sapiens, UniProt P24941); experiment: Protein kinase/phosphatase panel: CDK2/cyclinA; assay type: biochemical; conditions: inhibitor 10 μM; 100 μM ATP
# [3] = tested on: neutrophils on TNFα-inflamed venular endothelium of the cremaster muscle; experiment: Intravital microscopy of TNFα-inflamed cremaster muscle venules, GFP+/− mice; assay type: in vivo
# Description: To determine if PI3Kδ contributes to leukocyte accumulation in inflamed tissues, the ability of leukocytes to interact with cytokine-stimulated endothelial cells in microvessels in the cremaster muscle of mice and to transmigrate was examined. Animals heterozygous for GFP expression under the murine lysozyme M locus control, which rendered neutrophils and other granulocytes visible by epifluorescence intravital microscopy, were used to quantitate leukocyte interactions with the vessel wall.
# Mice in which green fluorescent protein (GFP) was knocked into the lysozyme M locus or the PI3Kδ catalytic subunit was deleted were generated as previously described [Faust et al., Blood, 96:719-726 (2000); and, Clayton et al., J. Exp. Med., 196:753-763 (2002)]. Subsequent matings were performed to yield mice that were heterozygous for GFP expression but deficient in PI3Kδ expression (mixed 129/Sv-C57BL/6 background) (GFP^+/−/PI3Kδ^−/− animals). All animals were handled in accordance with policies administered by institutional Animal Care and Use Committees.
# The surgical preparation of animals for all in vivo studies was performed using standard techniques [see, e.g., Coxon, Immunity, 5:653-666 (1996)]. The cremaster muscle (CM) in GFP^+/− or GFP^+/−/PI3Kδ^−/− animals was inflamed with an intrascrotal injection of murine recombinant TNFα (20 ng/mouse). 2.5 hours after TNFα injection, the tissue was surgically exposed and positioned over a circular glass coverslip (25 mm) on a custom-built plexiglass stage for viewing. The stage was then placed on an intravital microscope (IV-500; Mikron instruments, San Diego, Calif.) equipped with a silicon-intensified camera (VE1000SIT; Dage mti, Michigan City, Ind.) and the tissue kept moist by superfusion with thermo-controled (37° C.) bicarbonate-buffered saline. GFP-expressing cells (predominantly neutrophils, also including fewer monocytes) were visualized through X20 or X40 water immersion objectives (Acroplan, Carl Zeiss Inc.) by epifluorescence from a Xenon arc stroboscope (Chadwick Helmuth, El Monte, Calif.) as they passed through the venous microcirculation of the cremaster muscle. Rolling fraction was defined as the percentage of cells that interact with a given venule in the total number of cells that enter that venule during the same time period. The sticking fraction was defined as the number of rolling cells that became stationary for >30 s post-superfusion of the CM with LTB4 (0.1 μM). Venular shear rates were determined from optical Doppler velocimeter measurements of centerline erythrocyte velocity. The extent of leukocyte transmigration was evaluated at 30 and 60 min after application of LTB4. Video images were recorded using a Hi8 VCR (Sony, Boston, Mass.), and analysis of performed using a PC-based image analysis system [Doggett et al., Biophys. J., 83:194-205 (2002)].
# In order for leukocyte transmigration to occur, engagement of the leukocyte integrins with ICAMs expressed on venular endothelium (“firm adhesion”) is necessary for leukocytes to stably adhere to the vessel wall (in addition to the requirement for selectin-mediated tethering and rolling) [Dunne et al., Blood, 99:336-341 (2002)]. To determine the role of PI3Kδ in firm adhesion, the ability of leukocytes rolling on inflamed venular endothelium to undergo integrin-mediated firm adhesion in response to an activating stimulus was investigated in vivo.
# These experiments were performed in accordance with the procedures described in Example 2.
# [4] = Plasma concentration of the compound after oral administration; assay type: in vivo, mice; conditions: when LTB4 was applied
# Description: Animals received a single oral dose of either a compound in accordance with the invention (25 mg/kg for mice and 20 or 40 mg/kg for rats) or vehicle (PEG-400). Blood samples were subsequently drawn at indicated time points and plasma concentration of the compound determined after liquid-liquid extraction by LC/MS. The lower quantification limit was 50 ng/ml. Plasma samples from control animals (vehicle alone) were used as the blank control.
# [5] = biological target: PDK1; experiment: Activity of PDK1 immunoprecipitated from TNFα-stimulated HUVECs; assay type: cell-based, human; conditions: incubation of intact HUVECs with compound
# Description: Thus, PI3Kδ activity is required for PDK1 and Akt function in endothelium as previously described for neutrophils.
# [6] = tested on: neutrophils; experiment: Neutrophil chemotaxis across bare filter insert (Transwell) to LTB4; assay type: cell-based, mouse
# Description: Neutrophil chemotaxis experiments were conducted as described [Roth et al., J. Immunoi. Methods, 188:97-116 (1995)]. Briefly, purified human neutrophils were incubated with DMSO (0.3% v/v) or an inhibitor in accordance with the invention reconstituted in DMSO (0.3%) for 20 minutes at room temperature. Cells were added to bare filter inserts (Transwell™ 5 μm pore size; Corning Costar, Cambridge, Mass.), that were placed into wells containing chemoattractants or control medium of a Ultra low 24-well cluster plate, and incubated for 1 hour at 37° C. in a 5% CO2 humidified environment. The number of neutrophils that migrated into the bottom well was determined by FACScan (Becton Dickinson, San Jose, Calif.). Results were expressed as percent neutrophil migration relative to the control (medium without inhibitor).
# A dose response curve was generated to determine the concentration of LTB4 necessary to support half-maximal migration across a bare filter insert. Maximal transmigration for neutrophils purified from mouse bone marrow occurred between 100 to 250 nM of LTB4. […] Tager et al., J Exp. Med., 192:439-46 (2000). Treatment of WT neutrophils with 2 μM inhibitor in accordance with the invention diminished migration in response to LTB4 (30 nM) by ˜30%, a value equivalent to that observed for PI3Kδ deficient cells.
# [7] = biological target: cSrc (Homo sapiens, UniProt P12931); conditions: inhibitor 10 μM; reported by Sadhu et al.; cited from earlier work
# [8] = biological target: PKBα (Akt 1) (Homo sapiens, UniProt P31749); conditions: inhibitor 10 μM; reported by Sadhu et al.; cited from earlier work
# [9] = biological target: PKCα (Homo sapiens, UniProt P17252); conditions: inhibitor 10 μM; reported by Sadhu et al.; cited from earlier work
# Sequence of Lck (P06239 whole entry, species assumed): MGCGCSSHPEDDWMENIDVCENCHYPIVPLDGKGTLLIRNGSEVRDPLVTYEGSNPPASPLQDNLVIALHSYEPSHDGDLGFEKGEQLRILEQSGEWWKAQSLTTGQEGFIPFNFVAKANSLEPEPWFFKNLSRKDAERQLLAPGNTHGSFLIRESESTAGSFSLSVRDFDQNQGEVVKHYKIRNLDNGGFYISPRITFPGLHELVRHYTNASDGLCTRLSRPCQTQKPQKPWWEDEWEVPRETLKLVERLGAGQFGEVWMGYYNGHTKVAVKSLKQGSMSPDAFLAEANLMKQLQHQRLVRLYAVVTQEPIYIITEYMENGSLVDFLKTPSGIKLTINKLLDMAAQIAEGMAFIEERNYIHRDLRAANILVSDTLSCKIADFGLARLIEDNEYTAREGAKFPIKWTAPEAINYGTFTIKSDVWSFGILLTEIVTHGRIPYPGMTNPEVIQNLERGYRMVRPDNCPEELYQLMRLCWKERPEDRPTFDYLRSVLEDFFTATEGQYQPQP
# Sequence of cSrc (P12931 whole entry, species assumed): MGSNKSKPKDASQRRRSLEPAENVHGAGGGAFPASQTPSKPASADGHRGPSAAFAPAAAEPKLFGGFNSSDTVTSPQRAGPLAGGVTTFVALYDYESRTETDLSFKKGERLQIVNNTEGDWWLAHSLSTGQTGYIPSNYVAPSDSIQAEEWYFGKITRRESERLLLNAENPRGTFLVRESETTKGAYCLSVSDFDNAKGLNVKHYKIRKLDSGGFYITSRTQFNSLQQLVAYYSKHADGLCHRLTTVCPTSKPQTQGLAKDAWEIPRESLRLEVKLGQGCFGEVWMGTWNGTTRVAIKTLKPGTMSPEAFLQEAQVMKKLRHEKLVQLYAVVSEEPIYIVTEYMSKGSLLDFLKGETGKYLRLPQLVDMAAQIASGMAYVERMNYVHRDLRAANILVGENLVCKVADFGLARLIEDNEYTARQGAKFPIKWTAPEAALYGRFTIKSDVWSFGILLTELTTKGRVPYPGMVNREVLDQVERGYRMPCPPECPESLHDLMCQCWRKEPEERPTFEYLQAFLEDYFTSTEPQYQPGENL
# Sequence of PKBα (Akt 1) (P31749 whole entry, species assumed): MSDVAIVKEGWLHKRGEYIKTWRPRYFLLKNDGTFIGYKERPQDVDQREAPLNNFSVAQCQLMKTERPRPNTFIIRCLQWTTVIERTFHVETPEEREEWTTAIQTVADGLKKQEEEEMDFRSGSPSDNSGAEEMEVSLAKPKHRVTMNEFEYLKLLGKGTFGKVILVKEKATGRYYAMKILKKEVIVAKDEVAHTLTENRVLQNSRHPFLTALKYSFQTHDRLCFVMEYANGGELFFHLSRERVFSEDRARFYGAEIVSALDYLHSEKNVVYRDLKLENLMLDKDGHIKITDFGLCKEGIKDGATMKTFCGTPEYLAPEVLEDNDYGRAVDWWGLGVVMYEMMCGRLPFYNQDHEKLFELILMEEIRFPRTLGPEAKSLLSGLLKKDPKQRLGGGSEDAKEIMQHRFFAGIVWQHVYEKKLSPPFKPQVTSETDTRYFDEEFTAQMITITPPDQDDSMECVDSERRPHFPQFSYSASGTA
compound,measurement,setting,value
Cc1ccccc1-n1c(Cn2cnc3c(N)ncnc32)nc2cccc(C)c2c1=O,Activity (% of control) ± SD,[1],116.5 ± 9.2 % of control
same,Activity (% of control) ± SD,[2],92.5 ± 2.12 % of control
same,mean rolling velocities of neutrophils on TNFα-inflamed venules,[3]; GFP+/− animals,40.5±12.5 μm/s
same,LTB4-induced migration of neutrophils across inflamed microvessels,[3]; LTB4 superfusion of cremaster muscle,diminished
same,integrin-mediated firm adhesion of rolling leukocytes in vivo,[3]; inflamed cremaster muscle superfused with LTB4,rapidly transitioned from rolling to firm adhesion
same,time the majority of neutrophils rolled before releasing from the vessel wall,[3]; inhibitor-treated GFP+/− animals,< 2 s
same,interactions between circulating granulocytes and venular endothelium,"[3]; oral, one hour prior to intrascrotal TNFα, GFP+/− animals, vs vehicle",significantly impaired
same,decrease in the number of fluorescent cells that attach and roll,[3]; vs vehicle treated mice,> 50%
same,inhibitor concentration (mean plasma),[4],12.8 ± 3.7 µM
same,kinase activity of PDK1 in response to TNFα,[5],reduced the kinase activity
same,diminished migration in response to LTB4,"[6]; 2 μM, LTB4 30 nM, WT neutrophils",~30%
same,chemotaxis of cells lacking PI3Kδ,"[6]; identical concentration (2 μM), PI3Kδ deficient cells",no further effects on chemotaxis
same,Activity (% of control) ± SD,[7],No inhibition*
same,Activity (% of control) ± SD,[8],No inhibition*
same,Activity (% of control) ± SD,[9],No inhibition*
